The values that follow come from PMC11364543, “Molecular recognition of an odorant by the murine trace amine-associated receptor TAAR7f” (Nature Communications, 2024).

The assay concerns the target T1, mTAAR7f (Mus musculus, UniProt Q5QD08).
T1 construct: gene Taar7f; full length; N-terminal signal peptide, twin-strep and SNAP-tag, C-terminal nanoluc; BRET partner NES-Venus-mini-Gs (reporter)
T1 sequence (Q5QD08 1-358): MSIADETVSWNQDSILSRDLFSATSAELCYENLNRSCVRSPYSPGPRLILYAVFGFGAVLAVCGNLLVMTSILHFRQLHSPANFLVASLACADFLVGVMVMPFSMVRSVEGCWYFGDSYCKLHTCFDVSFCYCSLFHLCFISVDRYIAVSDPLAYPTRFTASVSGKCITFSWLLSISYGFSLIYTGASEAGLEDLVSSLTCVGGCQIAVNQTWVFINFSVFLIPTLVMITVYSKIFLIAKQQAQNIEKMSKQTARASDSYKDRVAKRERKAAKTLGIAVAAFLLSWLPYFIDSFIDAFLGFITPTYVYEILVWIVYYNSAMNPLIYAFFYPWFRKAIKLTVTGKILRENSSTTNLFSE
As to the kind of experiment: BRET mini-Gs recruitment (nanoluc receptor, NES-Venus-mGs), concentration-response. The format is cell-based. The text has this:
BRET mini-Gs recruitment (nanoluc receptor, NES-Venus-mGs), concentration-response on mTAAR7f | BRET ratios measured for increasing concentrations of the agonist DMCHA for the wild-type mTAAR7f

`CN(C)C1CCCCC1` [N,N-dimethylcyclohexylamine]: a half-maximal effect (EC50) was put at 8.51 µM.
